Measurements reported in US20090111894A1, “Method of Preventing Microbial Growth” (priority 2005, published 2009).

Legend:
Format in all cases: cell-based
Staphylococcus aureus = experiment: Inhibition effect in model media (MIC), optical density growth reading; details: BHI, 30° C., weight/volume
Experimental: (§1) The inhibition effect of Hydroxyacetaldehyde was tested in model media at various concentration levels and at 3 different pH's and against various micro-organisms at 30° C.
(§2) The medium was Brain Heart Infusion Broth (BHI) or Malt Water. Tested were: • Bacillus subtilus in BHI • Echerichia coli in BHI • Staphylococcus aureus in BHI • Saccharomyces cerevisieae in Malt water • Penicillium crustosum in Malt water
(§3) The pH of the media was set in the medium to 4.5 5.0 and 6.0, respectively. Hydroxyacetaldehyde concentrations were: 0, 0.0125, 0.025, 0.05, 0.1, 0.2, and 0.4%. Growth was recorded by an automated Optical Density reader (NEPHELOstar Galaxy of the manufacturer BMG).

Penicillium crustosum = experiment: as above; details: Malt water, 30° C., weight/volume
Experimental: as §1, §2, §3

Bacillus subtilus = experiment: as above; details: BHI, 30° C., weight/volume
Experimental: as §1, §2, §3

Echerichia coli = experiment: as above; details: BHI, 30° C., weight/volume
Experimental: as §1, §2, §3

Moulds = experiment: Reduction of organisms in corrugated board pulp; details: pulp at 20° C.
Experimental: (§4) Contamination with moulds and bacteria is known to be serious problem for corrugated board. Hydroxyacetaldehyde was added to the corrugated board pulp during production to determine if it would be possible to produce a mould-free corrugated board.
(§5) To 40 gram of small pieces of cut corrugated board 300 ml of sterile water was added. This was mixed to form a pulp. This pulp was divided into 3 portions to which 0, 0.5 and 2% hydroxyacetaldehyde was added. The pulp was incubated at 20° C. and after 0, 2, 5 and 22 hours the number of organisms per gram pulp was measured. The reduction factor (cfu at to/cfu at tn) was as follows: […]

Bacteria = experiment: Reduction of organisms in corrugated board pulp; details: pulp at 20° C.
Experimental: as §4, §5

Zygosaccharomyces bailii = experiment: Inhibition effect in Ice Tea (MIC); details: Lipton Ice Tea with apple juice, 25° C.
Experimental: (§6) The inhibition effect of Hydroxyacetaldehyde was tested in Ice Tea at various concentrations, at 2 different pH's and against 2 micro-organisms at 25° C. Tested were: • Zygosaccharomyces bailii • Talaromyces trachyspermus
(§7) The medium was Lipton Ice Tea with apple juice. The pH of the medium was set at 4.5 and 6.0, respectively. Hydroxyacetaldehyde concentrations were: 0, 0.0125, 0.025, 0.05, 0.1, 0.2, 0.4 and 0.8%. Growth was recorded by an automated optical density reader NEPHELOstar Galaxy of the manufacturer BMG. The MIC (Minimal Inhibition Concentration) for the different micro-organisms were: […]

[1] = tested on: Talaromyces trachyspermus; experiment: Inhibition effect in Ice Tea (MIC); details: Lipton Ice Tea with apple juice, 25° C.
Experimental: as §6, §7

Candida parapsilosis = experiment: Inhibition effect in model media (MIC), optical density growth reading; details: 30° C., weight/volume
[2] = 0.5 hydroxyacetaldehyde, incubation 2 hours
[3] = 0.5 hydroxyacetaldehyde, incubation 5 hours
[4] = 0.5 hydroxyacetaldehyde, incubation 22 hours
[5] = 2% hydroxyacetaldehyde, incubation 2 hours
[6] = 2% hydroxyacetaldehyde, incubation 5 hours
[7] = 2% hydroxyacetaldehyde, incubation 22 hours

O=CCO [Hydroxyacetaldehyde]
MIC (Minimal Inhibition Concentration) (Staphylococcus aureus; pH 4.5): 0.05% | MIC (Minimal Inhibition Concentration) (Staphylococcus aureus; pH 5): 0.05% | MIC (Minimal Inhibition Concentration) (Staphylococcus aureus; pH 6): 0.05% | MIC (Minimal Inhibition Concentration) (Penicillium crustosum; pH 4.5): 0.1% | MIC (Minimal Inhibition Concentration) (Penicillium crustosum; pH 6): 0.1% | MIC (Minimal Inhibition Concentration) (Bacillus subtilus; pH 4.5): 0.1% | MIC (Minimal Inhibition Concentration) (Bacillus subtilus; pH 5): 0.1% | MIC (Minimal Inhibition Concentration) (Bacillus subtilus; pH 6): 0.1% | MIC (Minimal Inhibition Concentration) (Echerichia coli; pH 4.5): 0.1% | MIC (Minimal Inhibition Concentration) (Echerichia coli; pH 5): 0.1% | MIC (Minimal Inhibition Concentration) (Echerichia coli; pH 6): 0.1% | reduction factor (cfu at to/cfu at tn) (Moulds; [2]): 20 | reduction factor (cfu at to/cfu at tn) (Moulds; [3]): 40 | reduction factor (cfu at to/cfu at tn) (Moulds; [4]): >40 | reduction factor (cfu at to/cfu at tn) (Moulds; [5]): >40 | reduction factor (cfu at to/cfu at tn) (Moulds; [6]): >40 | reduction factor (cfu at to/cfu at tn) (Moulds; [7]): >40 | reduction factor (cfu at to/cfu at tn) (Bacteria; [2]): 3.8 | reduction factor (cfu at to/cfu at tn) (Bacteria; [3]): 4.1 | reduction factor (cfu at to/cfu at tn) (Bacteria; [4]): 25.5 | reduction factor (cfu at to/cfu at tn) (Bacteria; [5]): 7.4 | reduction factor (cfu at to/cfu at tn) (Bacteria; [6]): 26.4 | reduction factor (cfu at to/cfu at tn) (Bacteria; [7]): >1.4e4 | MIC (Minimal Inhibition Concentration) (Zygosaccharomyces bailii; pH 4.5): 0.8% | MIC (Minimal Inhibition Concentration) (Zygosaccharomyces bailii; pH 6): 0.8% | MIC (Minimal Inhibition Concentration) ([1]; pH 4.5): 0.1% | MIC (Minimal Inhibition Concentration) ([1]; pH 6): 0.1% | MIC (Minimal Inhibition Concentration) (Candida parapsilosis; pH 4.5): 0.2% | MIC (Minimal Inhibition Concentration) (Candida parapsilosis; pH 6): 0.2%
